pIC50, pKd: −log10 of the molar value.
Assays:
[1] = biological target: FKBP12 / FRB ternary complex (Homo sapiens (Human), UniProt P42345+P62942); test: SPR assay to characterize ternary complex formation with FKBP12 (FRB binding to rapalog-saturated FKBP12); conditions: FRB dilutions with 100 nM rapalog on immobilized FKBP12
Description: Example 30: SPR Assay to Characterize Ternary Complex Formation with FKBP12
(§1) Biotinylated avi-FKBP12 was immobilized on a streptavidin chip (Cytiva Series S SA) using a Biacore 8K or 8 k+ (Cytiva). To achieve an immobilization level of 100 RU, 0.3 μg/ml biotinylated avi-FKBP12 were injected for 80 sec at a flow rate of 10 μl/min. Serial dilution of FRB was prepared (12 concentrations, 3-fold dilutions, 0.00011-20 μM) and supplemented with 100 nM of rapalog. A-B-A injection mode was used to ensure saturation immobilized FKBP12 with respective rapalog. 100 nM solution of the respective rapalog was injected before FRB injection for 120 sec and during dissociation for 420 sec. The FRB dilutions were then injected 120 seconds contact time with increasing concentrations. […] 50 mM HEPES pH 7.5, 150 mM NaCl, 2 mM MgCl2, 1 mM DTT, 0.05% Tween-20, 1% DMSO was used as running buffer at a flow rate of 30 μl/min. The multi-cycle kinetics data were fit to a 1:1 binding model to measure the association rate ka (1/Ms), the dissociation rate kd (1/s) and the affinity Kd (M). In case of fast association and dissociation, steady state affinity analysis following the law of mass action was used to determine the affinity Kd (M).

[2] = biological target: FKBP51 / FRB ternary complex (Homo sapiens (Human), UniProt P42345+Q13451); test: SPR assay to characterize ternary complex formation with FKBP51 (FRB binding to rapalog-saturated FKBP51); conditions: FRB dilutions with 100 nM rapalog on immobilized FKBP51
Description: Example 31: SPR Assay to Characterize Ternary Complex Formation with FKBP51
as §1, with “Biotinylated avi-FKBP51” for “Biotinylated avi-FKBP12”, “of 200” for “of 100”, “RU, 0.6” for “RU, 0.3”, “biotinylated avi-FKBP51” for “biotinylated avi-FKBP12”, “for 150” for “for 80”

mTORC1 = mTORC1 (Homo sapiens (Human), UniProt P42345+P62942); test: mTORC1 inhibition, AlphaLISA of Phospho-p70 S6 kinase (p70S6K pT389) in PC-3 cells; assay type: cell-based; conditions: inhibition of p70S6K pT389 levels
FKBP51 = FKBP51 (Homo sapiens (Human), UniProt Q13451); test: SPR assay to determine binding affinity to FKBP51 (direct binding); conditions: immobilized biotinylated avi-FKBP51
FKBP51, sequence (Q13451 whole entry): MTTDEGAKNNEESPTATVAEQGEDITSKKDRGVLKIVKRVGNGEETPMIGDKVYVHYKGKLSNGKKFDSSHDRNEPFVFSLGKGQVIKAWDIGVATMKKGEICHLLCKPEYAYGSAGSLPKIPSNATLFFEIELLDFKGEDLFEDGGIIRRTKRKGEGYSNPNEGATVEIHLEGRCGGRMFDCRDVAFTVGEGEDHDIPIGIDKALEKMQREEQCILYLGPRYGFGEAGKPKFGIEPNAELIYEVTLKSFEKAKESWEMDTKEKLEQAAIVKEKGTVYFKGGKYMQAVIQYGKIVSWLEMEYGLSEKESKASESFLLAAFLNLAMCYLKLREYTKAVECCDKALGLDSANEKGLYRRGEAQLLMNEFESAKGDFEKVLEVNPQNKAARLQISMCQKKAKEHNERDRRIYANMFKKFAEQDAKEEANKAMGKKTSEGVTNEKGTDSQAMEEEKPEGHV
Description: Example 29: SPR Assay to Determine Binding Affinity to FKBP51
Biotinylated avi-FKBP51 was immobilized on a streptavidin chip (Cytiva Series S SA) using a Biacore 8K or 8 k+ (Cytiva). To achieve an immobilization level of 2000 RU, 3 μg/ml biotinylated avi-FKBP51 were injected for 360 sec at a flow rate of 10 μl/min. Rapalogs were diluted in DMSO to 100× working concentration. Each Rapalog was 100-fold diluted in 50 mM HEPES pH 7.5, 150 mM NaCl, 2 mM MgCl2, 1 mM DTT, 0.05% Tween-20 and a serial dilution prepared (8 concentrations, 3-fold dilutions, 0.5-1000 nM). […] The compound dilutions were then injected at 100 uL/min for 120 seconds contact time and with 3600 seconds dissociation time with increasing concentrations. 50 mM HEPES pH 7.5, 150 mM NaCl, 2 mM MgCl2, 1 mM DTT, 0.05% Tween-20, 1% DMSO was used as running buffer. Multi-cycle kinetics data were fit to a 1:1 binding model to measure the association rate ka (1/Ms), the dissociation rate kd (1/s) and the affinity Kd (M).

mTORC2 = mTORC2 (Homo sapiens (Human), UniProt P42345+P62942); test: mTORC2 inhibition, AlphaLISA of Phospho-AKT (pAKT pS473) in PC3 cells; assay type: cell-based
Description: Example 32: mTORC1 Inhibition, mTORC2 Inhibition, Cell Lysis, AlphaLISA Experiments, and Data Analysis
mTORC2 inhibition was determined via analysis of phosphorylation level of Phospho-AKT (pAKT pS473) with the corresponding AlphaLISA kit (PerkinElmer, Alpha SF Ultra™ Multiplex p-AKT1/2/3(Ser473)/Total AKT1). PC3 cells were plated on 96 well plates in assay medium (DMEM: Ham's F12, basic (CLS Cell Lines Service GmbH, Cat #820400a), supplemented with additional 10% FBS at 1.20E+06 cells/mL and incubated over-night at 37° C., 5% CO2. On the following day, cells were treated with assay medium (10% FBS) containing increasing compound concentrations (12 points at 3-fold dilutions) and incubated for 6 hours at 37° C., 5% CO2. Thereafter, medium was aspirated and cells were rinsed with PBS. In the following, cells were treated with compound dilutions in starvation medium (DMEM: Ham's F12, basic; without FBS) for further 18 h at 37° C., 5% CO2. Then, immediately prior to cell lysis, cells were treated with 12% FBS for 15 min.
After performing experiments according to mTORC1 and mTORC2 protocols, cells were harvested in lysis buffer supplied with the AlphaLISA kits, additionally enriched with Roche cOmplete™ Protease Inhibitor Cocktail (Cat #CO-RO). Thus, cells were lysed using 50 μL of the lysis buffer and incubated for 60 min at 4° C. while shaking. After centrifugation at 4000 rpm for 5 min, experiments were performed according to the AlphaLISA manufacturer's protocol.
Ten microliters of cell lysates were mixed with the acceptor mix. After incubation for 2 h at room temperature, the donor mix was added. After additional incubation at room temperature for 2 hours, AlphaLISA signal was read on PHERAstar® FSX (BMG Labtech) with AlphaPLEX module.
EC50 values were calculated by ExcelFit standard algorithm.

FKBP12 = FKBP12 (Homo sapiens (Human), UniProt P62942); test: SPR assay to determine binding affinity to FKBP12 (direct binding); conditions: immobilized biotinylated avi-FKBP12
FKBP12, sequence (P62942 whole entry): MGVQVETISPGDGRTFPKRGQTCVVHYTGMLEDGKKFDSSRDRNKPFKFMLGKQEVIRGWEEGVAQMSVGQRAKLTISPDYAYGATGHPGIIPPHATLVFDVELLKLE
Description: SPR Assay to Determine Binding Affinity to FKBP12.
Biotinylated avi-FKBP12 was immobilized on a streptavidin chip (Cytiva Series S SA) using a Biacore 8K or 8 k+ (Cytiva). To achieve an immobilization level of 1000 RU, 2 μg/ml biotinylated avi-FKBP12 were injected for 100 sec at a flow rate of 10 μl/min. Rapalogs were diluted in DMSO to 100× working concentration. Each Rapalog was 100-fold diluted in 50 mM HEPES pH 7.5, 150 mM NaCl, 2 mM MgCl2, 1 mM DTT, 0.05% Tween-20 and a serial dilution prepared (9 concentrations, 3-fold dilutions, 0.08-500 nM). […] The compound dilutions were then injected at 100 uL/min for 120 seconds contact time in sequence with increasing concentrations. Dissociation was monitored for 3600 seconds. 50 mM HEPES pH 7.5, 150 mM NaCl, 2 mM MgCl2, 1 mM DTT, 0.05% Tween-20, 1% DMSO was used as running buffer. The single-cycle kinetics data were fit to a 1:1 binding model to measure the association rate ka (1/Ms), the dissociation rate kd (1/s) and the affinity Kd (M).

pKd [1] | pKd [2] | pIC50 (mTORC1) | pKd (FKBP51) | pKd (FKBP12) | inhibition at 1 µM (mTORC2; PC-3, read-out: mTORC2 % inhibition at 1 uM) [%] | Structure (SMILES) | mTORC2 % inhibition at 1 uM (mTORC2)
6.10 to 6.52 | > 6.52 | 9.10 to 10.00 | 7.00 to 8.00 | < 9.00 |  | COC1CC(CC(C)C2CC(=O)C(C)C=C(C)C(O)C(OC)C(=O)C(C)CC(C)C=CC=CC=C(C)C(NS(=O)(=O)C3CC3)CC3CCC(C)C(O)(O3)C(=O)C(=O)N3CCCCC3C(=O)O2)CCC1O (mixture of isomers) [Compound 1] | A (A ≤20% inhibition at 1 micro Molar (uM))
> 6.52 | 6.10 to 6.52 | > 10.00 | 7.00 to 8.00 | > 9.52 |  | COCCOCCS(=O)(=O)NC1CC2CCC(C)C(O)(O2)C(=O)C(=O)N2CCCCC2C(=O)OC(C(C)CC2CCC(OCCCS(C)(=O)=O)C(OC)C2)CC(=O)C(C)C=C(C)C(O)C(OC)C(=O)C(C)CC(C)C=CC=CC=C1C (mixture of isomers) [Compound 4] | A (A ≤20% inhibition at 1 micro Molar (uM))
> 6.52 | 6.10 to 6.52 | 9.10 to 10.00 | 7.00 to 8.00 | > 9.52 |  | COCCOCCS(=O)(=O)NC1CC2CCC(C)C(O)(O2)C(=O)C(=O)N2CCCCC2C(=O)OC(C(C)CC2CCC(OCCO)C(OC)C2)CC(=O)C(C)C=C(C)C(O)C(OC)C(=O)C(C)CC(C)C=CC=CC=C1C (mixture of isomers) [Compound 7] | B (B>20% and less than 40% inhibition at 1 uM)
6.10 to 6.52 | < 6.10 | 9.10 to 10.00 | 7.00 to 8.00 | > 9.52 |  | COCCS(=O)(=O)NC1CC2CCC(C)C(O)(O2)C(=O)C(=O)N2CCCCC2C(=O)OC(C(C)CC2CCC(OCCCO)C(OC)C2)CC(=O)C(C)C=C(C)C(O)C(OC)C(=O)C(C)CC(C)C=CC=CC=C1C (mixture of isomers) [Compound 13] | A (A ≤20% inhibition at 1 micro Molar (uM))
< 6.10 | < 6.10 | < 9.10 | 7.00 to 8.00 | 9.00 to 9.52 |  | CCOC(=O)COC1CCC(CC(C)C2CC(=O)C(C)C=C(C)C(O)C(OC)C(=O)C(C)CC(C)C=CC=CC=C(C)C(NS(=O)(=O)CCOC)CC3CCC(C)C(O)(O3)C(=O)C(=O)N3CCCCC3C(=O)O2)CC1OC (mixture of isomers) [Compound 14] | A (A ≤20% inhibition at 1 micro Molar (uM))
> 6.52 | < 6.10 | 9.10 to 10.00 | 7.00 to 8.00 | > 9.52 |  | COC1CC(CC(C)C2CC(=O)C(C)C=C(C)C(O)C(OC)C(=O)C(C)CC(C)C=CC=CC=C(C)C(NS(=O)(=O)C3CC3)CC3CCC(C)C(O)(O3)C(=O)C(=O)N3CCCCC3C(=O)O2)CCC1OCCCO (mixture of isomers) [Compound 15] | A (A ≤20% inhibition at 1 micro Molar (uM))
6.10 to 6.52 | < 6.10 | 9.10 to 10.00 | 7.00 to 8.00 | > 9.52 |  | COCCS(=O)(=O)NC1CC2CCC(C)C(O)(O2)C(=O)C(=O)N2CCCCC2C(=O)OC(C(C)CC2CCC(OCCO)C(OC)C2)CC(=O)C(C)C=C(C)C(O)C(OC)C(=O)C(C)CC(C)C=CC=CC=C1C (mixture of isomers) [Compound 16] | B (B>20% and less than 40% inhibition at 1 uM)
6.10 to 6.52 | < 6.10 | 9.10 to 10.00 | 7.00 to 8.00 | > 9.52 |  | COCCS(=O)(=O)NC1CC2CCC(C)C(O)(O2)C(=O)C(=O)N2CCCCC2C(=O)OC(C(C)CC2CCC(OCCCS(C)(=O)=O)C(OC)C2)CC(=O)C(C)C=C(C)C(O)C(OC)C(=O)C(C)CC(C)C=CC=CC=C1C (mixture of isomers) [Compound 17] | A (A ≤20% inhibition at 1 micro Molar (uM))
6.10 to 6.52 | < 6.10 | < 9.10 |  | < 9.00 |  | CO[C@@H]1C[C@H](C[C@@H](C)[C@@H]2CC(=O)[C@H](C)/C=C(\C)[C@@H](O)[C@@H](OC)C(=O)[C@H](C)C[C@H](C)/C=C/C=C/C=C(\C)[C@H](OCC3CCC3)C[C@@H]3CC[C@@H](C)[C@@](O)(O3)C(=O)C(=O)N3CCCC[C@H]3C(=O)O2)CC[C@H]1OCCCS(C)(=O)=O [Compound 63] | C (C≥40% and less than 60% inhibition at 1 uM)
 |  |  | > 8.00 |  | ≥ 60 | CO[C@H]1C[C@@H]2CC[C@@H](C)[C@@](O)(O2)C(=O)C(=O)N2CCCC[C@H]2C(=O)O[C@H]([C@H](C)C[C@@H]2CC[C@@H](O)[C@H](OC)C2)CC(=O)[C@H](C)/C=C(\C)[C@@H](O)[C@@H](OC)C(=O)[C@H](C)C[C@H](C)/C=C/C=C/C=C/1C [Rapamycin, reference compound] | 

Structure (SMILES) | pKd [1] | pKd [2] | pIC50 (mTORC1) | pKd (FKBP51) | pKd (FKBP12) | inhibition at 1 µM (mTORC2; PC-3, read-out: mTORC2 % inhibition at 1 uM) [%] | mTORC2 % inhibition at 1 uM (mTORC2)
COC1CC(CC(C)C2CC(=O)C(C)C=C(C)C(O)C(OC)C(=O)C(C)CC(C)C=CC=CC=C(C)C(OCC3CCC3)CC3CCC(C)C(O)(O3)C(=O)C(=O)N3CCCCC3C(=O)O2)CCC1O (stereo not drawn) [Compound 37] | 6.10 to 6.52 | < 6.10 | < 9.10 |  | < 9.00 |  | B (B>20% and less than 40% inhibition at 1 uM)

— US11603377B2, “MTORC1 modulators and uses thereof” (Aeovian Pharmaceuticals, Inc., priority 2020, dated 2023)
